These results are taken from patent US10018637B2, “Methods for treating inflammatory and other diseases and the use of biomarkers as predictors of clinical sensitivity to treatment with apremilast” (CELGENE INTERNATIONAL II SARL, priority 2015, dated 2018).

The subject of assay [1] is ankylosing spondylitis patients. The assay is described as follows: Response of ankylosing spondylitis patients to apremilast treatment, by biomarker-defined patient group. Type of assay: in vivo, human. The method, then:
In this example, a group of ankylosing spondylitis patients was identified based on expression profile of 49 biomarkers as being more likely to be responsive to a treatment with apremilast. In particular, Myriad RBM inflammation MAP biomarker panel (having 49 biomarkers) was used to profile 280 patient samples in the study, among which 255 patient samples produced measurable biomarker levels. In these 255 patient samples, 95 patient samples were treated with 20 mg apremilast (“Apremilast 20 mg Arm Group”). Within the Apremilast 20 mg Arm Group, 36 patient samples were responsive to the treatment and 59 patient samples were not responsive to the treatment. 80 patient samples were treated with 30 mg apremilast (“Apremilast 30 mg Arm Group”). Within Apremilast 30 mg Arm Group, 31 patient samples were responsive to the treatment and 49 patient samples were not responsive to the treatment. The remaining 80 patient samples were control samples (placebo arm).
Unsupervised clustering was then used to analyze the biomarker expression profiles for these patient samples based on the 49 biomarkers (consensus clustering/distance (1-PCor)/Ward linkage method). These 49 biomarkers were Alpha-1-Antitrypsin, Alpha-2-Macroglobulin, Beta-2-Microglobulin, Brain-Derived Neurotrophic Factor, C-Reactive Protein, Complement C3, Eotaxin-1, Factor VII, Ferritin, Fibrinogen, Granulocyte-Macrophage Colony-Stimulating Factor, Haptoglobin, Intercellular Adhesion Molecule 1, Interferon gamma, Interleukin-1 alpha, Interleukin-1 beta, Interleukin-1 receptor antagonist, Interleukin-10, Interleukin-12 Subunit p40, Interleukin-12 Subunit p70, Interleukin-15, Interleukin-17, Interleukin-2, Interleukin-23, Interleukin-3, Interleukin-4, Interleukin-5, Interleukin-6, Interleukin-7, Interleukin-8, Macrophage Inflammatory Protein-1 alpha, Macrophage Inflammatory Protein-1 beta, Matrix Metalloproteinase-3, Matrix Metalloproteinase-9, MCP1, Stem Cell Factor, T-Cell-Specific Protein RANTES, Tissue Inhibitor of Metalloproteinases, Tumor Necrosis Factor alpha, Tumor Necrosis Factor beta, Tumor necrosis factor receptor 2, Vascular Cell Adhesion Molecule-1, Vascular Endothelial Growth Factor, Vitamin D-Binding Protein, von Willebrand Factor, Osteoprotegerin, Interleukin-18, RANKL, and Sclerostin.
The results are shown in the plot of FIG. 1A. As shown, a group of 50 patients (cluster 4) were identified as representing about 30% of the total treatment arm population. […] In particular, within this group of 50 patients, the response rate was about 54%, higher than the response rate in the remaining patients which was about 31%.
Each biomarker was then further analyzed for its association with the cluster 4 patient group. MCP1 cytokine was identified as being able to most strongly differentiate the cluster 4 group with the remaining patients. […] The threshold derived from the mid-point (or average) of the median of MCP1 low cluster and the median of non MCP1 low patients was 93.5 pg/ml (see the dash line in the right panel of FIG. 2A).
When the threshold was calculated as the mid-point between median MCP1 level in cluster 4 patient group and median MCP1 level in the remaining patients, the threshold level was 93.5 pg/ml.
A third method used to calculate a MCP1 threshold level was by calculating the mean of thresholds obtained from 10-fold cross validation (discussed above). In particular, each fold provided an optimal threshold according to the AUC metric when classifying for cluster membership. Then, the mean value of the 10 thresholds was calculated. Using this method, the threshold of MCP1 was calculated as 75.63 pg/ml. With this more restrictive learned threshold, the population selected into the MCP1 low group decreased while the response rate of the MCP1 low sub-group increased.

In assay [2] the test system is Ankylosing Spondylitis. As to conditions: after 24 weeks, largest study trial; placebo 22%; cited from earlier work.

As to `CCOc1cc([C@@H](CS(C)(=O)=O)N2C(=O)c3cccc(NC(C)=O)c3C2=O)ccc1OC` [apremilast, (+)-2-[1-(3-ethoxy-4-methoxyphenyl)-2-methylsulfonylethyl]-4-acetylaminoisoindoline-1,3-dione], the “patient samples responsive to the treatment” value in assay [1] (Apremilast 20 mg Arm Group, 95 patient samples) was 36; in assay [1] (Apremilast 30 mg Arm Group, 80 patient samples), 31. The response rate in assay [1] (MCP1 low group, threshold 75.63 pg/ml, apremilast 30 mg arm (22% of the patients)) is given as 67%; in assay [1] (MCP1 low group, threshold 93.5 pg/ml, apremilast 30 mg arm (45% of the patients)) it was 56%; in assay [1] (MCP1 low group, threshold 93.5 pg/ml, both 20 mg and 30 mg arms (36% of the patients)), 49%; in assay [1] (cluster 4 (MCP1 low patient group), 50 patients, 20 mg or 30 mg apremilast), “about 54%”; in assay [1] (cluster 4 patients receiving 30 mg apremilast (25 patients)), 64%; in assay [1] (patient subgroup differentiated by MCP1 level (14% of total population), apremilast arm 20 mg or 30 mg, FIG. 2B) it was “about 62.5%”. The response rate result is “about 66.6%” in assay [1] (patient subgroup differentiated by MCP1 level (20% of apremilast 30 mg arm), 30 mg apremilast, FIG. 2C); “about 31%” in assay [1] (remaining patients (not cluster 4), treatment arms); 27% in assay [1] (remaining patients in the Apremilast 30 mg Arm Group (not cluster 4)). This molecule also gave a patients responded in assay [1] (cluster 4 patients receiving 30 mg apremilast, out of 25) of 16.
In the case of etanercept, in assay [2], the “response rate (ASAS 20 response criteria)” value is 57%.
